Values joined by “and” are separate entries in the source; they are usually repeats but may differ in a detail not shown here. Equal values may be shown once.
Experiments:
[1] = test system: Normal human epidermal melanocytes (NHEMs); experiment: Melanin induction in normal human epidermal melanocytes; format: cell-based
Experimental: Normal human epidermal melanocytes (NHEMs) were examined for induction of melanogenesis using cells and media from Clonetics Corporation (San Diego, Calif.). Cells were cultured exactly as specified by the supplier.

[2] = test system: Cloudman S91 mouse melanoma cell line; experiment: Cell count (proliferation, toxicity) of treated S91 cells; format: cell-based; settings: concentrations that induce much higher levels of tyrosinase
Experimental: The Cloudman S91 mouse melanoma cell line was obtained from American Type Culture Collection (ATCC). Cells were cultured in Dulbecco's Modified Eagles Medium (DMEM) containing 10% calf serum, 2 mM L-glutamine, 10 U Penicillin/ml and 10 ug Streptomycin/ml according to a previously published protocol (Eller, et al., Proc. Natl. Acad. Sci. 93:1087-92. 1996). For testing propylene glycol and analogues for induction of melanogenesis, S91 cells were plated at 10^5 cells/35 mm dish in 10% calf serum. One day after plating, media was removed and replaced with media containing 2% calf serum and test compounds (Eller, et al., 1996). Cells were cultured for 6 days at 37° C. in 5% CO2 in a humidified incubator. Following this treatment period, cells were examined microscopically and the portion of dedifferentiated and differentiated cells was estimated. Previous studies have shown that dedifferentiated S91 cells have a rounded, spindly appearance while differentiated S91 cells have a flattened, cuboidal, multipolar and dendritic appearance (Orlow, et al., Exp. Cell Res. 191:209-218, 1990).
Following this microscopic examination, cells were detached from dishes by trypsin. The time required for detachment by trypsin was recorded as an additional indicator of the phenotypic effects of test compounds. For each treatment, a subsample of cells was counted to determine the effects of treatment compounds on cellular proliferation. The remainder of cells were used for determination of melanin content. Melanin was extracted from cells by vortexing for 15 min in 1N NaOH. Standards were prepared by dissolving melanin (Sigma) in 1 N NaOH (Eller, et al., 1996). Absorbance of standards and samples was measured at 475 nm. Melanin was expressed as pg melanin/cell.

[3] = test system: tyrosinase activity in S91 mouse melanoma cells; experiment: Induction of tyrosinase activity in S91 cells; settings: 300 mM PG-1,2; 25 mM 3,3-M-1,2-BD; 50 mM 1,2-cs-CPD; 5 mM 5-NBene-2,2-DM; 0.5 mM 2,3-Pyd; 0.1 mM IBMX; mean ±SE
Experimental: Compounds were examined for their ability to induce tyrosinase activity in S91 mouse melanoma cells. […] Following treatments, cells were trypsinized, counted by Coulter, pelleted by centrifugation at 1000×g, and analyzed for tyrosinase activity using modifications of previously described procedures (Pomerantz, S. H., 1966, J. Biol. Chem. 241:161-168; Jara, et al., 1988, Pigment Cell Res. 1: 332-339.). Briefly, cell pellets were solubilized by sonicating for 5 seconds in 600 ul 50 mM phosphate buffer pH 6.8 containing 0.5% Triton-X100, followed by vortexing, incubation on ice for 30 min, and then revortexing. From this, 200 ul aliquots were combined with 200 ul of reaction mixture containing either 75 uM tyrosine, 75 uM L-Dopa, and 2 uCi L-[3,5-^3H]Tyrosine in 50 mM NaPO4 pH 6.8 (L-Dopa+), or, 75 uM tyrosine, and 2 uCi L-[3,5-^3H]Tyrosine in 50 mM NaPO4 pH 6.8 (L-Dopa−) and incubated 1 hr at 37° C. Reactions were stopped by addition of 400 ul 10% activated charcoal in 0.1N HCl and incubation on ice for 15 min. This mixture was centrifuged at 17,300×g for 5 min, and 400 ul supernatant was then filtered through a 0.22 uM GV Durapore centifugal filter unit (Millipore) by centrifuging at 17,300×g for 5 min. Filtrate was added to 4 ml Fisher Plus scintillation fluid and counted on a Hewlett Packard scintillation counter. Tyrosinase activity was calculated as dpm/hr/ug protein and dpm/hr/10^3 cells. Each sample was analyzed with and without L-Dopa, a necessary cofactor for tyrosinase (Pomerantz, S. H., 1966, J. Biol. Chem. 241:161-168; McLane, et al., 1987, Biochem. Biophys. Res. Commun. 145:719-725). All reported tyrosinase values are exclusive of counts that occurred in buffer blanks and L-dopa negative aliquots. Protein was determined on aliquots of cell lysate, extracellular particulate lysate or media by the Bradford Coomassie Blue method (Bradford, 1967, Anal. Biochem. 72:248-254) using Bio-Rad Protein Assay Kit I.

[4] = test system: Cloudman S91 mouse melanoma cell line; experiment: Melanin content of S91 cells after treatment with test compound; format: cell-based
Method in brief: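 Mouse S91 melanoma cells seeded at 10^5 cells/35 mm dish in 10% calf serum and cultured with test compound 6 days at 37 °C, 5% CO2. Differentiation scored microscopically, trypsin detachment time recorded, cells counted; melanin measured by absorbance at 475 nm and expressed as pg melanin/cell.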

[5] = test system: Tyrosinase in normal human epidermal melanocytes (NHEM); experiment: Tyrosinase in NHEM (in situ, cellular, extracellular particulate, media); format: cell-based
Experimental: Tyrosinase was measured in normal human epidermal melanocytes (NHEM) using procedures identical to those described for S91 cells (Example 6), […], 1600×g, or 17,300×g for analysis of tyrosinase activity in the extracellular exported melanosomal particulate fraction, and in the resultant supernatant media fraction. In some cases (Table 11), tyrosinase was also measured by an in situ assay wherein radiolabelled tyrosine was added directly to freshly replaced media of NHEM for a period of 24 hrs following a 5 day treatment period (Abdel-Malek, et al., 1992, J. Cell. Physiol. 150:416-425). […] Both 5 mM 5-NBene-2,2-DM and 25 mM 3,3-M-1,2-BD induced more tyrosinase in each of these assays and fractions than did 1,2-PG. IBMX (3-isobutyl-1-methyl-xanthine) provided as a positive control, induced as much tyrosinase as 5 mM 5-NBene-2,2-DM in the in situ assay, but less in cellular, extracellular particulate and media fractions (Table 11).

[6] = test system: American short-haired guinea pigs; experiment: Topical melanogenesis (pigmentation rating) in guinea pigs; format: in vivo, guinea pig; parameters: Pigmentation Rating / Pigmentation Rating Background Corrected: scale not given here
Experimental: Compounds were tested for melanogenic activity in vivo by application to American short-haired guinea pigs. Treatment sites were created by removal of fur using Nair® brand depilatory. In the Table, the numbers presented are the relative melanogenesis rating (mean ±SE), and are arranged according to the relative location on the animal, with the head being to the left and the tail being to the right. Propylene glycol (PG=13.6M), 2,3-butanediol (2,3-BD=10.95M), and 1,2-cis-cyclopentanediol (1,2-cs-CPD=10.7M) were applied as full strength solutions. 3,3-dimethyl-1,2-butanediol (3,3-M-1,2-BD) was applied as a 4M solution dissolved in ethanol. Two weeks following cessation of treatments, the degree of pigmentation was subjectively rated according to the following scale:
In order to minimize the effects of dimunition of response from head to tails of animals, all future experiments were done using only treatment spots located towards the tails of animals (c and d in Table 7). Deemed as additionally beneficial, in this area of the animal differences of responsiveness to strong and weak inducers of pigmentation, as deduced from cell culture, were greatest. […] Pigmentation ratings were corrected for background (control treatment spots), normalized to 1M to account for the different amounts of each agent applied, and then normalized to results for 1,2-PG (Table 8). […] It is anticipated that further improvements in formulation will additionally improve responsiveness to 5-NBene-2,2-DM and other compounds in this invention.
In FIG. 5, a, b, c and d indicate treatment spots that transverse the anterior-posterior axis along the backs of guinea pigs.

[7] = 5 day treatment, concentrations as E130
[8] = pair of replicates, concentrations as E130
[9] = No Penetration Enhancer, concentrations as E85

Q: What does the source list for CC(C)(C)C(O)CO (stereo not drawn) [3,3-M-1,2-BD, 3,3-dimethyl-1,2-butanediol]?
A: Concentration Required for ≧1.5-fold Melanin Induction in NHEMs [1]: 12.5 mM; toxicity to S91 cells [2]: nontoxic; Tyrosinase dpm/hr 10^3 Cells [3]: 1211 ± 38 dpm/hr/10^3 Cells; Tyrosinase dpm/hr ug Protein [3]: 1746 ± 220 dpm/hr/ug Protein; Concentration Required for ≧2-fold Melanin Induction in S91 Cells [4]: 10 mM; Tyrosinase In Situ ([5]; 5 day treatment, 300 mM 1,2-PG, 25 mM 3,3-M-1,2-BD, 5 mM 5-NBene-2,2-DM, 0.1 mM IBMX): 20.5 dpm/hr/10^3 Cells and 21.0 dpm/hr/10^3 Cells; Tyrosinase 200 g Partic [5, 7]: 1646 dpm/hr/10^3 Cells and 2226 dpm/hr/10^3 Cells; Tyrosinase Cellular [5, 7]: 11728 dpm/hr/10^3 Cells and 11730 dpm/hr/10^3 Cells; Tyrosinase 17300 g Partic ([5]; Post 200 X g, 5 day treatment, concentrations as E130): 536 dpm/hr/10^3 Cells and 425 dpm/hr/10^3 Cells; Tyrosinase Media ([5]; Post 17300 X g, 5 day treatment, concentrations as E130): 5495 dpm/hr/10^3 Cells and 3056 dpm/hr/10^3 Cells; Tyrosinase 200 g Partic, relative to controls (in parentheses) [5, 8]: (5.64X); Tyrosinase 17300 g Partic, relative to controls (in parentheses) [5, 8]: (4.20X); Tyrosinase Cellular, relative to controls (in parentheses) [5, 8]: (1.15X); Tyrosinase In Situ, relative to controls (in parentheses) [5, 8]: (1.31X); Tyrosinase Media, relative to controls (in parentheses) [5, 8]: (2.75X); Pigmentation Rating Normalized to 1,2-PG [6, 9]: 18.1 ± 6.8; Pigmentation Rating Normalized to 1M [6, 9]: 0.272 ± 0.102; Pigmentation Rating Background Corrected ([6]; No Penetration Enhancer, corrected for Nair control, concentrations as E85): 1.09 ± 0.41; Pigmentation Rating ([6]; No Penetration Enhancer, sites c and d, 13.61M 1,2-PG, 11.0M 2,3-M-2,3-BD, 11.3M 2-M-1,3-PG, 8.7M 1,2-cs-CPD, 4.0M 3,3-M-1,2-BD): 1.17 ± 0.44; greater melanogenesis than PG applied at similar body locations ([6]; guinea pig, 5 days): 4.5 fold; relative melanogenesis rating (mean ±SE), scale 0-4 ([6]; site c, 25 μl twice per day for 5 days, rated two weeks after, full strength, 3,3-M-1,2-BD 4M in ethanol): 1.16 ± 0.66^2
